The source of these data is BindingDB's records for doi:10.1021/jm00168a028 (University of Minnesota, 1990).

Where a SMILES comes first, the peptide text is derived from it. [ ]: non-standard residue; d: D form. The star is where a group is joined. Tyr(Nα,Nα-allyl2) = C=CCN(CC=C)[C@@H](Cc1ccc(O)cc1)C(=O)*; Aib = CC(C)(N)C(=O)O

The nature of test [1]: Binding affinity was measured by the displacement of [3H]- DADLE in guinea pig brain membrane of Opioid receptor delta 1. In general terms: Loss of bound radioactivity is the signal in a displacement assay; it reports binding, not function.
Test [2] in a line: Binding affinity was measured by the displacement of [3H]- DADLE in guinea pig brain membrane of opioid receptor delta.
Test [3] is described as follows: Binding affinity was measured by the displacement of [3H]- DADLE in guinea pig brain membrane of Opioid receptor delta 1. The source holds these as a separate data set.

For orientation: Ki means the dissociation constant of the complex between target and ligand, obtained from inhibition or displacement. Low values mean tighter binding, high ones weaker binding. As for `CN1CC[C@]23c4c5ccc(O)c4O[C@H]2c2[nH]c4ccccc4c2C[C@@]3(O)[C@H]1C5`, the affinity in test [1] corresponds to a Ki of 0.7 nM.
For the molecule `COc1ccc2c3c1O[C@H]1c4[nH]c5ccccc5c4C[C@@]4(O)[C@@H](C2)N(CC2CC2)CC[C@]314` [22-cyclopropylmethyl-16-methoxy-(2S,13R)-14-oxa-11,22-diazaheptacyclo[13.9.1.01,13.02,21.04,12.05,10.019,25]pentacosa-4(12),5(10),6,8,15(25),16,18-heptaen-2-ol(HCl1.5H2O)], the Ki in test [2] and in test [1] was 40 nM in each case.
In turn, `C=CCN(CC=C)[C@@H](Cc1ccc(O)cc1)C(=O)NC(C)(C)C(=O)NC(C)(C)C(=O)N[C@@H](Cc1ccccc1)C(=O)N[C@@H](CC(C)C)C(=O)O` [ICI-174864] ({Tyr(Nα,Nα-allyl2)}-[Aib][Aib]FL-OH) returned a Ki in test [3] of 35 nM.
